Data reported in patent US9273058B2 (BRISTOL-MYERS SQUIBB COMPANY, priority 2013, dated 2016).
Where two headings read alike, the source gives them in different places.

Columns and labels:
[1] = target: CK1δ (Homo sapiens, UniProt P48730); assay: CK1δ kinase assay (Caliper LabChip electrophoretic separation of fluoresceinated peptide substrate and product); format: biochemical; details: 200 pM CK1δ, 50 μM ATP, 1.5 μM peptide, 22 hours at room temperature
Method in brief: (§1)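 Each reaction was incubated 22 hours at room temperature and terminated with EDTA. Read-out was microfluidic electrophoretic separation of fluoresceinated substrate and phospho-product.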

[2] = target: CK1ε (Homo sapiens, UniProt P49674); assay: CK1ε kinase assay (Caliper LabChip electrophoretic separation of fluoresceinated peptide substrate and product); format: biochemical; details: 200 pM CK1ε, 50 μM ATP, 1.5 μM peptide, 22 hours at room temperature
Sequence of CK1ε (P49674 whole entry): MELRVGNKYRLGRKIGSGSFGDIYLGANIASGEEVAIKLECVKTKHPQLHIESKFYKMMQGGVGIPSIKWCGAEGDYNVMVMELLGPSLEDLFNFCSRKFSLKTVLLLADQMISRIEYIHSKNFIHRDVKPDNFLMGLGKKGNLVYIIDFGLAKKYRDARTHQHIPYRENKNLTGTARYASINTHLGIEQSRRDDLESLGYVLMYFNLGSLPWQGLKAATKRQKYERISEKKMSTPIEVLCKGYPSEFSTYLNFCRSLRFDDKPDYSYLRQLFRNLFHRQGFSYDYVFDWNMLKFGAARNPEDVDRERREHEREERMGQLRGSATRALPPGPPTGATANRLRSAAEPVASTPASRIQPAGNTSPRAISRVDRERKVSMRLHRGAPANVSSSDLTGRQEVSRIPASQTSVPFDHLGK
Method in brief: as §1

Sequence of CK1δ (P48730 whole entry): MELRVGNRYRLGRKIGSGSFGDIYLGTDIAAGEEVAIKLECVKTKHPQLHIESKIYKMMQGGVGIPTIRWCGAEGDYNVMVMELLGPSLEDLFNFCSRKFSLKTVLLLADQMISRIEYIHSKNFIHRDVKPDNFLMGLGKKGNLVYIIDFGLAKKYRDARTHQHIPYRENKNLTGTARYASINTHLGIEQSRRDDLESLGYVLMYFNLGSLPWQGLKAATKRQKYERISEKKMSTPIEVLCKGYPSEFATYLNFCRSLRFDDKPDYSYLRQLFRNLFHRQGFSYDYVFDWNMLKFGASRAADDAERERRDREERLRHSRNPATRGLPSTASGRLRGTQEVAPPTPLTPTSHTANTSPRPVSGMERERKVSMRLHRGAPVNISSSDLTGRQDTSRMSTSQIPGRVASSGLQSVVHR

IC50 ([1]; read-out: CK1δ IC50 range)	IC50 ([2]; read-out: CK1ε IC50 range)	IC50 ([1]; read-out: CK1δ)	IC50 ([2]; read-out: CK1ε)	Compound
0.01 to 10 nM	0.01 to 10 nM	–	–	CC(C)C1CN(C(=O)NC(C)(C)C)Cc2c(C(N)=O)c(-c3ccc(F)c(Cl)c3)nn21 (single isomer, unassigned) [Compound A120, N^5-(tert-Butyl)-2-(3-chloro-4-fluorophenyl)-7-isopropyl-6,7-dihydropyrazolo[1,5-a]pyrazine-3,5(4H)-dicarboxamide]
0.01 to 10 nM	0.01 to 10 nM	–	–	CC(C)(CO)NC(=O)N1CCn2nc(-c3ccc(F)c(Cl)c3)c(C(N)=O)c2C1 [Compound A48, 2-(3-Chloro-4-fluorophenyl)-N^5-(1-hydroxy-2-methylpropan-2-yl)-6,7-dihydropyrazolo[1,5-a] pyrazine-3,5(4H)-dicarboxamide]
0.01 to 10 nM	0.01 to 10 nM	–	–	COC12CCC(NC(=O)N3CCn4nc(-c5ccc(F)c(Cl)c5)c(C(N)=O)c4C3)(CC1)C2 [Compound A63, 2-(3-Chloro-4-fluorophenyl)-N^5-(4-methoxybicyclo[2.2.1]heptan-1-yl)-6,7-dihydropyrazolo[1,5-a]pyrazine-3,5(4H)-dicarboxamide]
0.01 to 10 nM	0.01 to 10 nM	–	–	NC(=O)c1c(-c2ccc(F)c(Cl)c2)nn2c1CN(C(=O)NC1CC(F)(F)C1)C[C@@H]2CO [Compound A116, (R)-2-(3-Chloro-4-fluorophenyl)-N^5-(3,3-difluorocyclobutyl)-7-(hydroxymethyl)-6,7-dihydropyrazolo[1,5-a]pyrazine-3,5(4H)-dicarboxamide]
0.01 to 10 nM	0.01 to 10 nM	–	–	CC1(NC(=O)N2CCn3nc(-c4cccc(Cl)c4)c(C(N)=O)c3C2)CC1 [Compound A42, 2-(3-Chlorophenyl)-N^5-(1-methylcyclopropyl)-6,7-dihydropyrazolo[1,5-a]pyrazine-3,5(4H)-dicarboxamide]
0.01 to 10 nM	0.01 to 10 nM	–	–	CC1CN(C(=O)NC(C)(C)C)Cc2c(C(N)=O)c(-c3cccc(Cl)c3)nn21 (stereo not shown) [A8]
0.01 to 10 nM	0.01 to 10 nM	–	–	NC(=O)c1c(-c2ccc(F)c(Cl)c2)nn2c1CN(C(=O)NC13CCC(C(F)F)(CC1)C3)CC2 [Compound A139, 2-(3-Chloro-4-fluorophenyl)-N^5-(4-(difluoromethyl)bicyclo[2.2.1]heptan-1-yl)-6,7-dihydropyrazolo[1,5-a]pyrazine-3,5(4H)-dicarboxamide]
0.01 to 10 nM	0.01 to 10 nM	–	–	NC(=O)c1c(-c2ccc(F)c(Cl)c2)nn2c1CN(C(=O)NC13CCC(c4ccccc4)(CC1)CC3)CC2 [Compound A53, 2-(3-Chloro-4-fluorophenyl)-N^5-(4-phenylbicyclo[2.2.2]octan-1-yl)-6,7-dihydropyrazolo[1,5-a]pyrazine-3,5(4H)-dicarboxamide]

Second part, the compound before the results:

Compound	IC50 ([1]; read-out: CK1δ IC50 range)	IC50 ([2]; read-out: CK1ε IC50 range)	IC50 ([1]; read-out: CK1δ)	IC50 ([2]; read-out: CK1ε)
NC(=O)c1c(-c2ccc(Cl)c(Cl)c2)nn2c1CN(C(=O)N[C@H]1C[C@H](F)C1)CC2 [Compound 202, 2-(3,4-Dichlorophenyl)-N^5-((1r,3r)-3-fluorocyclobutyl)-6,7-dihydropyrazolo[1,5-a] pyrazine-3,5(4H)-dicarboxamide]	0.01 to 10 nM	0.01 to 10 nM	–	–
NC(=O)c1c(-c2ccc(F)c(Cl)c2)nn2c1CN(C(=O)N[C@H]1C[C@@H](OC(F)(F)F)C1)CC2 [Compound 261, 2-(3-Chloro-4-fluorophenyl)-N^5-((1r,3r)-3-(trifluoromethoxy)cyclobutyl)-6,7-dihydropyrazolo[1,5-a]pyrazine-3,5(4H)-dicarboxamide]	0.01 to 10 nM	0.01 to 10 nM	–	–
NC(=O)c1c(-c2ccc(F)c(Cl)c2)nn2c1CN(C(=O)NC1CN(CC(F)(F)F)C1)CC2 [Compound 339, 2-(3-Chloro-4-fluorophenyl)-N^5-(1-(2,2,2-trifluoroethyl)azetidin-3-yl)-6,7-dihydropyrazolo[1,5-a]pyrazine-3,5(4H)-dicarboxamide]	0.01 to 10 nM	0.01 to 10 nM	–	–
CC(C)(C)NC(=O)N1CCn2nc(-c3cccc(-c4ccccc4)c3)c(C(N)=O)c2C1 [Compound 141, 2-([1,1′-Biphenyl]-3-yl)-N^5-(tert-butyl)-6,7-dihydropyrazolo[1,5-a] pyrazine-3,5(4H)-dicarboxamide]	100 to 2000 nM	100 to 2000 nM	–	–
CC1CC(NC(=O)N2CCn3nc(-c4ccc(F)c(Cl)c4)c(C(N)=O)c3C2)C1 (single isomer, unassigned) [Compound 246, 2-(3-Chloro-4-fluorophenyl)-N^5-(3-methylcyclobutyl)-6,7-dihydropyrazolo[1,5-a]pyrazine-3,5(4H)-dicarboxamide]	0.01 to 10 nM	0.01 to 10 nM	–	–
NC(=O)c1c(-c2cccc(F)c2)nn2c1CN(C(=O)NC1CCC1)CC2 [Compound 8, N^5-Cyclobutyl-2-(3-fluorophenyl)-6,7-dihydropyrazolo[1,5-a]pyrazine-3,5(4H)-dicarboxamide]	10 to 100 nM	10 to 100 nM	–	–
CC(C)NC(=O)C(C)(C)NC(=O)N1CCn2nc(-c3ccc(F)c(Cl)c3)c(C(N)=O)c2C1 [Compound 216, 2-(3-Chloro-4-fluorophenyl)-N^5-(1-(isopropylamino)-2-methyl-1-oxopropan-2-yl)-6,7-dihydropyrazolo[1,5-a] pyrazine-3,5(4H)-dicarboxamide]	10 to 100 nM	100 to 2000 nM	–	–
NC(=O)c1c(-c2ccc(F)c(Cl)c2)nn2c1CN(C(=O)NC1(C(F)F)CC(F)(F)C1)CC2 [Compound 304, 2-(3-Chloro-4-fluorophenyl)-N^5-(1-(difluoromethyl)-3,3-difluorocyclobutyl)-6,7-dihydropyrazolo[1,5-a]pyrazine-3,5(4H)-dicarboxamide]	0.01 to 10 nM	0.01 to 10 nM	–	–
NC(=O)c1c(-c2cccc(Cl)c2)nn2c1CN(C(=O)NC1CC(COC(F)F)C1)CC2 (single isomer, unassigned) [Compound 245, 2-(3-Chlorophenyl)-N^5-(3-((difluoromethoxy)methyl)cyclobutyl)-6,7-dihydropyrazolo[1,5-a]pyrazine-3,5(4H)-dicarboxamide]	0.01 to 10 nM	0.01 to 10 nM	–	–
NC(=O)c1c(-c2ccc(Cl)c(Cl)c2)nn2c1CN(C(=O)N[C@@H]1CC[C@H]1COC(F)F)CC2 [Compound 243, 2-(3,4-Dichlorophenyl)-N^5-((1R,2R)-2-((difluoromethoxy)methyl)cyclobutyl)-6,7-dihydropyrazolo[1,5-a] pyrazine-3,5(4H)-dicarboxamide]	0.01 to 10 nM	0.01 to 10 nM	–	–
CC1(NC(=O)N2Cc3c(C(N)=O)c(-c4ccc(F)c(Cl)c4)nn3[C@H]3COC[C@H]32)CC(F)(F)C1 [Compound 354, (5aS,8aR)-2-(3-Chloro-4-fluorophenyl)-N^5-(3,3-difluoro-1-methylcyclobutyl)-5a,6,8,8a-tetrahydrofuro[3,4-e]pyrazolo [1,5-a]pyrazine-3,5(4H)-dicarboxamide]	0.01 to 10 nM	0.01 to 10 nM	–	–
CS(=O)(=O)c1cccc(NC(=O)N2CCn3nc(-c4cccc(F)c4)c(C(N)=O)c3C2)c1 [Compound 93, 2-(3-Fluorophenyl)-N^5-(3-(methylsulfonyl)phenyl)-6,7-dihydropyrazolo[1,5-a]pyrazine-3,5(4H)-dicarboxamide]	0.01 to 10 nM	0.01 to 10 nM	–	–
NC(=O)c1c(-c2cccc(Cl)c2)nn2c1CN(C(=O)Nc1ccc(OC(F)(F)F)cc1)CC2 [Compound 162, 2-(3-Chlorophenyl)-N^5-(4-(trifluoromethoxy)phenyl)-6,7-dihydropyrazolo[1,5-a]pyrazine-3,5(4H)-dicarboxamide]	0.01 to 10 nM	0.01 to 10 nM	–	–
NC(=O)c1c(-c2cccc(Cl)c2)nn2c1CN(C(=O)NC1CC(F)(F)C1)CC2 [Compound 292, 2-(3-Chlorophenyl)-N^5-(3,3-difluorocyclobutyl)-6,7-dihydropyrazolo[1,5-a]pyrazine-3,5(4H)-dicarboxamide]	10 to 100 nM	10 to 100 nM	–	–
CC(C)(C)NC(=O)N1CCn2nc(-c3cccc4ncccc34)c(C(N)=O)c2C1 [Compound 132, N^5-(tert-Butyl)-2-(quinolin-5-yl)-6,7-dihydropyrazolo[1,5-a]pyrazine-3,5(4H)-dicarboxamide]	100 to 2000 nM	100 to 2000 nM	–	–
NC(=O)c1c(-c2cccc(F)c2)nn2c1CN(C(=O)Nc1c(F)cc(F)cc1F)CC2 [Compound 40, 2-(3-Fluorophenyl)-N^5-(2,4,6-trifluorophenyl)-6,7-dihydropyrazolo[1,5-a]pyrazine-3,5(4H)dicarboxamide]	10 to 100 nM	100 to 2000 nM	–	–
CC(C)(C)NC(=O)N1CCn2nc(-c3ccc(F)cc3F)c(C(N)=O)c2C1 [Compound 124, N^5-(tert-Butyl)-2-(2,4-difluorophenyl)-6,7-dihydropyrazolo[1,5-a] pyrazine-3,5(4H)-dicarboxamide]	–	–	172 nM	118 nM
CC(C)(C)NC(=O)N1CCn2nc(-c3ccc4cc[nH]c4c3)c(C(N)=O)c2C1 [Compound 143]	0.01 to 10 nM	10 to 100 nM	4.2 nM	33.3 nM
CC(C)(COC(F)(F)F)NC(=O)N1CCn2nc(-c3ccc(F)c(Cl)c3)c(C(N)=O)c2C1 [Compound 212, 2-(3-Chloro-4-fluorophenyl)-N^5-(2-methyl-1-(trifluoromethoxy)propan-2-yl)-6,7-dihydropyrazolo[1,5-a]pyrazine-3,5(4H)-dicarboxamide]	0.01 to 10 nM	0.01 to 10 nM	–	–
CNC(=O)C(C)(C)NC(=O)N1CCn2nc(-c3ccc(F)c(Cl)c3)c(C(N)=O)c2C1 [Compound 214, 2-(3-Chloro-4-fluorophenyl)-N^5-(2-methyl-1-(methylamino)-1-oxopropan-2-yl)-6,7-dihydropyrazolo[1,5-a] pyrazine-3,5(4H)-dicarboxamide]	10 to 100 nM	10 to 100 nM	–	–
